Source: patent EP0103381B1, “Substituted anthra(1,9-cd)pyrazol-6(2H)-ones” (WARNER-LAMBERT COMPANY, priority 1982, dated 1984)
pIC50: −log10 of the molar value. Read-outs that look alike come from different tables or passages of the source.

Key:
Aerobacter aerogenes = assay: agar plate paper-disc inhibition zone screening; assay type: cell-based; details: Klebsiella aerogenes, read-out: Inhibition Zone Diameter mm (Dose mg/ml) A. Aerogenes; for zone of inhibition at 500 µg/mL: Dose 0.5 mg/ml; for zone of inhibition at 3000 µg/mL: Dose 3.0 mg/ml
Summary of the method: (§1)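 Inoculum: saline suspension, 20-35% transmittancy, in molten agar. Discs 12.7 mm, compound 3,000/1,000/500/100/10 mcg/ml, solvent <10%. 37°C, 18-20 h; zone diameter in mm.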

Bacillus subtilis = assay: agar plate paper-disc inhibition zone screening; assay type: cell-based; details: read-out: Inhibition Zone Diameter mm (Dose mg/ml) B. Subtilis; for zone of inhibition at 500 µg/mL: Dose 0.5 mg/ml; for zone of inhibition at 3000 µg/mL: Dose 3.0 mg/ml
Summary of the method: as §1

Escherichia coli = assay: agar plate paper-disc inhibition zone screening; assay type: cell-based; details: read-out: Inhibition Zone Diameter mm (Dose mg/ml) E. Coli; for zone of inhibition at 1000 µg/mL: Dose 1.0 mg/ml; for zone of inhibition at 500 µg/mL: Dose 0.5 mg/ml
Summary of the method: as §1

Streptococcus faecalis = assay: agar plate paper-disc inhibition zone screening; assay type: cell-based; details: Enterococcus faecalis, read-out: Inhibition Zone Diameter mm (Dose mg/ml) S. Faecalis; for zone of inhibition at 500 µg/mL: Dose 0.5 mg/ml; for zone of inhibition at 3000 µg/mL: Dose 3.0 mg/ml
Summary of the method: as §1

Penicillium avellaneum = assay: agar plate paper-disc inhibition zone screening; assay type: cell-based; details: Hamigera avellanea; Dose 3.0 mg/ml; read-out: Inhibition Zone Diameter mm (Dose mg/ml) P. Avellaneum
Summary of the method: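 Mycelia and spores from a six-day 28°C agar culture, suspended in saline with 0.05% Tween 80 at 20% transmittancy, were seeded into molten agar trays. Compounds at 3,000, 1,000, 500, 100 and 10 mcg/ml (solvent <10%) were applied on 12.7 mm paper discs. After at least 20-24 h incubation, inhibition zone diameter was measured in mm.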

[1] = system: lymphocytic leukemia P388; assay: in vivo lymphocytic leukemia P388 test; design: species or system mice; details: Mus musculus, P388, ip, 720 h, two single doses four days apart, read-out: T/C × 100 (Percent); for response vs control in vivo at 1.56 mg/kg: P388, Dose 1.56 mg/kg intraperitoneally; for response vs control in vivo at 3.12 mg/kg: P388, Dose 3.12 mg/kg intraperitoneally; for response vs control in vivo at 6.25 mg/kg: P388, Dose 6.25 mg/kg intraperitoneally; for response vs control in vivo at 12.5 mg/kg: P388, Dose 12.5 mg/kg intraperitoneally; for response vs control in vivo at 25 mg/kg: P388, Dose 25 mg/kg intraperitoneally
Summary of the method: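 Efficacy was judged from the treated/control survival-time ratio over 30 days (T/C×100 >125% as criterion). Mice (CD2F, 6–7/group) received i.p. P388 ascites cells, then compound i.p. at varied doses twice, four days apart.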

[2] = system: HCT-8 (human colon adenocarcinoma) cells; assay: in vitro activity against human colon adenocarcinoma (HCT-8), cell count; assay type: cell-based
Procedure: HCT-8 (human colon adenocarcinoma) cells are trypsinized using Trypsin-EDTA. A single cell suspension is achieved by passing the cells through a 26 gauge needle with a 20 cc syringe. A cell suspension is prepared using RPMI 1640 growth medium (available from Gibco Laboratories) +10% fetal calf serum +50 µg/ml garamycin with a cell concentration of approximately 30,000 cells/ml. The cell suspension is dispensed in Linbro 24-well plates; 1 ml/well. The plates are incubated for approximately 48 hrs at 37°C in a 5% C02 atmosphere. At this time test compounds are added in the appropriate concentration. Five µl of the 200 µg/ml stock solution is added to each well in a primary test. Ten pl of the appropriate dilution is added to each well for a titration test. The plates are reincubated an additional 60-65 hrs at 37°C in a 5% C02 atmosphere. The test is read by lysing the cells using a mix of cationic surfactant, glacial acetic acid and sodium chloride. […] of the lysed cell suspension from each well is added to 8 ml of diluent. Each sample is read with a Coulter counter (ZBI model). The activity of each sample is measured as a percentage of the controls and the data is reported as ID50, that is the molar quantity of drug required to kill 50% of the tumor cells.

[3] = Homo sapiens, HCT-8 cells, 60-65 hrs with compound, molar quantity of drug required to kill 50% of the tumor cells, read-out: ID50 Molar

Compound	zone of inhibition at 500 µg/mL (Aerobacter aerogenes) [mm]	zone of inhibition at 500 µg/mL (Streptococcus faecalis) [mm]	zone of inhibition at 3000 µg/mL (Penicillium avellaneum) [mm]	response vs control in vivo at 1.56 mg/kg [1] [%]	response vs control in vivo at 3.12 mg/kg [1] [%]	response vs control in vivo at 6.25 mg/kg [1] [%]	response vs control in vivo at 12.5 mg/kg [1] [%]	response vs control in vivo at 25 mg/kg [1] [%]	pIC50 [2, 3]	zone of inhibition at 500 µg/mL (Bacillus subtilis) [mm]	zone of inhibition at 1000 µg/mL (Escherichia coli) [mm]	zone of inhibition at 3000 µg/mL (Bacillus subtilis) [mm]	zone of inhibition at 500 µg/mL (Escherichia coli) [mm]	zone of inhibition at 3000 µg/mL (Streptococcus faecalis) [mm]	zone of inhibition at 3000 µg/mL (Aerobacter aerogenes) [mm]	also measured
CCN(CC)CCNc1ccc2c3c(nn2CCNCCO)-c2ccccc2C(=O)c13 [Example 23, 5-[[2-(Diethylamino)ethyl]amino]-2-[2-[(2-hydroxyethyl)amino]ethyl]anthra[1,9-cd]pyrazol-6(2H)-one]	18	15	16	138	143	138	150	149	6.92	–	–	–	–	–	–	zone of inhibition at 100 µg/mL (Bacillus subtilis; Dose 0.1 mg/ml): 14 mm; zone of inhibition at 100 µg/mL (Escherichia coli; Dose 0.1 mg/ml): 14 mm
CN(C)CCNc1ccc2c3c(nn2CCNCCO)-c2ccccc2C(=O)c13 [Example 25, 2-[2-[(2-Hydroxyethyl)amino]ethyl]-5-[[2-(dimethylamino)ethyl]amino]anthra[1,9-cd]pyrazol-6(2H)-one]	16	15	0	–	158	163	166	162	6.64	20	15	–	–	–	–	–
NCCn1nc2c3c(c(NCCNCCO)ccc31)C(=O)c1ccccc1-2 [Example 27, 2-(2-Aminoethyl)-5-[[2-[(2-hydroxyethyl)amino]ethyl]amino]anthra[1,9-cd]pyrazol-6(2H)-one]	–	–	0	139	149	158	173	187	7.17	–	–	14	14	0	–	zone of inhibition at 100 µg/mL (Aerobacter aerogenes; Dose 0.1 mg/ml): 17 mm
CCN(CC)CCNc1ccc2c3c(nn2CCN(CC)CC)-c2c(O)ccc(O)c2C(=O)c13 [Example 29, 2-[2-(Diethylamino)ethyl]-5-[[2-(diethylamino)ethyl]amino]-7,10-dihydroxyanthra[1,9-cd]pyrazol-6(2H)-one]	–	14	16	–	–	–	–	140	6.19	14	–	–	14	–	0	response vs control in vivo at 100 mg/kg ([1]; P388, Dose 100 mg/kg intraperitoneally): 180%
CCN(CC)CCn1nc2c3c(c(NCCN)ccc31)C(=O)c1c(O)ccc(O)c1-2 [Example 30, 5-[(2-Aminoethyl)amino]-2-(2-(diethylamino)ethyl]-7,10-dihydroxyanthra[1,9-cd]pyrazol-6(2H)-one]	16	–	14	172	154	189	–	179	6.42	–	15	–	–	0	–	zone of inhibition at 1000 µg/mL (Bacillus subtilis; Dose 1.0 mg/ml): 16 mm
CN(C)CCCn1nc2c3c(c(NCCNCCO)ccc31)C(=O)c1c(O)ccc(O)c1-2 [Example 46, 2-[3-(Dimethylamino)propyl]-7,10-dihydroxy-5-[[2-[(2-hydroxyethyl)amino]ethyl]amino]anthra[1,9-cd]pyrazol-6(2H)-one]	–	–	0	–	–	185	218	–	–	–	–	0	–	0	16	zone of inhibition at 3000 µg/mL (Escherichia coli; Dose 3.0 mg/ml): 0 mm; pIC50 ([2]; HCT-8 human colon adenocarcinoma cells, 60-65 hrs incubation with compound, Coulter counter cell count as percentage of controls, read-out: ID50 (the source's name)): 7.04
